For three compounds, cytotoxicity and IC50 results are on record in US20040023994A1 (priority 2002, published 2004).

The structures appear in SMILES notation. Entries after “also recorded” stand apart in the source; their conditions may differ.

In one series the test system is A-498 cells. The experiment in a line: MTT cytotoxicity assay. Type of series: cell-based, human. The settings on record: for IC50: A-498, 72 h incubation, MTT. Here is the method: (§1) Preliminary studies examining the in vitro cytotoxicity of cis-AVTP and trans-AVTG as compared to the parent drugs, were carried out using the 3-[4,5-dimethylthiazol-2-yl]-2,5-diphenyl tetrazolium bromide (MTT) cytotoxicity assay.
On the technique in general: Tetrazolium assays rely on reduction of a dye to a coloured formazan, in cell work by metabolically active cells.

The next series has as its system ACHN cells. The experiment in a line: MTT cytotoxicity assay. In kind it is cell-based, human. The settings on record: for IC50: 72 h incubation, MTT. Here is the method: as §1

With `O=C(O)/C=C\Sc1ncnc2[nH]cnc12` [PTA, cis-3-(9H-purin-6-ylthio)acrylic acid], the cytotoxicity result in the series on A-498 cells (A-498, within the concentration range examined (up to 500 μM)) is “little cytotoxicity; also recorded: not cytotoxic”; in the series with ACHN cells (within the concentration range examined (up to 500 μM)), “little cytotoxicity; also recorded: not cytotoxic”.
Regarding `Cn1cnc([N+](=O)[O-])c1Sc1ncnc2nc[nH]c12` [AZA, azathioprine], the IC50 – broadly, the concentration at which inhibition is half-maximal – in the series with A-498 cells (Homo sapiens, A498) came to 50.2 ± 10.4 µM; with ACHN cells (Homo sapiens), 22.1 µM.
Regarding `CC(=O)C=Cc1ccccc1` [PBO, phenylbutenone], the IC50 in the series with A-498 cells worked out at 252 ± 149 µM; with ACHN cells it was 62.3 ± 10.7 µM.
